Laboratory results taken from patent publication US11555212B2, “Process for the production of sulfated phenolic compounds using modified Escerichia coli” (CysBio ApS, priority 2016, dated 2023).

Legend:
[1] = target: T1, SULT1A1 Canis lupus familiaris (Canis lupus familiaris, UniProt Q29476); test: Production of zosteric acid from pHCA in E. coli expressing a sulfotransferase; format: cell-based; details: E. coli BL21(DE3)pLysS expressing SULT1A1 Canis lupus familiaris; M9 glucose, 0.1 mM IPTG, 0.1 mM pHCA; four days
T1 construct: 1, 3, 4, 5, and 6 were cloned amplified from liver tissue cDNA; expressed in transfected cells; host or cells: E. coli BL21(DE3)pLysS
Text: (§1) A range of aryl sulfotransferases including SULT1A1 Rattus norvegicus (SEQ ID NO: 1), SULT1A1 Homo sapiens (SEQ ID NO: 2), SULT1A1 Equus caballus (SEQ ID NO: 3), SULT1A1 Sus scrofa domesticus (SEQ ID NO: 4), SULT1A1 Canis lupus familiaris (SEQ ID NO: 5) and SULT1E1 Gallus gallus domesticus (SEQ ID NO: 6) were expressed in Escherichia coli. […]. The nucleotide sequence of the gene encoding SEQ ID NO: 2 was codon optimized for expression in Escherichia coli (GeneArt, Life Technologies) and amplified by PCR using the primers in Table 1. The pETDuet-1 plasmid was digested with restriction endonucleases NcoI and SalI. The PCR products were then individually cloned into the plasmid pETDuet-1 using the Gibson reaction (New England Biolabs). The resulting plasmids were transformed into BL21(DE3)pLysS (Life Technologies).
(§2) The strains were grown in M9 minimal media containing glucose as a carbon source, and 0.1 mM IPTG for induction of gene expression as well as 0.1 mM p-coumaric acid (pHCA). After four days of growth, samples were withdrawn by filtration and analyzed by HPLC.
(§3) The concentration of p-courmaric acid (pHCA) and zosteric acid in the supernatant was quantified by high performance liquid chromatography (HPLC) and compared to chemical standards. HPLC was done on a Thermo setup using a HS-F5 column and mobile phases: 5 mM ammonium formate pH 4.0 (A) and acetonitrile (B) at 1.5 mL min-1, using a gradient elution starting at 5% B. From 0.5 min after injection to 7 min, the fraction of B increased linearly from 5% to 60%, and between 9.5 min and 9.6 the fraction of B decreased back to 5%, and remaining there until 12 min. pHCA and zosteric acid were quantified by measuring absorbance at 277 nm.

[2] = target: T2, SULT1A1 Rattus norvegicus (Rattus norvegicus, UniProt P17988); test: as above; format: cell-based; details: E. coli BL21(DE3)pLysS expressing SULT1A1 Rattus norvegicus; M9 glucose, 0.1 mM IPTG, 0.1 mM pHCA; four days; culture media, HPLC
T2 construct: 1, 3, 4, 5, and 6 were cloned amplified from liver tissue cDNA; expressed in transfected cells
Text: as §1, §2, §3

SULT1A1 human [3] = target: T3, SULT1A1 human (Homo sapiens, UniProt P50225, V223M); test: as above; format: cell-based; details: E. coli BL21(DE3)pLysS expressing SULT1A1 Homo sapiens; M9 glucose, 0.1 mM IPTG, 0.1 mM pHCA; four days
T3 construct: expressed in transfected cells; host or cells: E. coli BL21(DE3)pLysS
Text: as §1, §2, §3

RmXAL = target: T4, RmXAL (Rhodotorula mucilaginosa, UniProt P10248); test: pHCA and zosteric acid in culture media of E. coli expressing a tyrosine ammonia lyase; format: cell-based, Rhodotorula mucilaginosa/Rhodotorula rubra; details: E. coli BL21(DE3)pLysS expressing RmXAL alone, M9 glucose, 0.1 mM IPTG, no substrate added
T4 construct: The gene encoding RmXAL was codon optimized using standard algorithms for expression in E. coli; expressed in transfected cells; host or cells: E. coli BL21(DE3)pLysS
Protocol: as §3
(§4) The enzyme RmXAL from Rhodotorula mucilaginosa/Rhodotorula rubra (SEQ ID NO: 46) has tyrosine ammonia lyase activity, thus catalyzing the non-oxidative deamination of the amino acid tyrosine, releasing p-coumaric acid (pHCA) and ammonia. The gene encoding RmXAL was codon optimized using standard algorithms for expression in E. coli available by GeneArt (Life Technologies) and amplified by PCR using the primers shown in Table 5 and inserted into the pCDFDuet-1 vector (Novagen/Life Technologies), which had been digested by the restriction enzymes NdeI and BgIII, using Gibson reaction (New England Biolabs). […]

SULT1A1 human [4] = target: T3, SULT1A1 human; test: pHCA and zosteric acid in culture media of E. coli expressing an aryl sulfotransferase in combination with a tyrosine ammonia lyase; format: cell-based; details: E. coli BL21(DE3)pLysS expressing SULT1A1 Homo sapiens and RmXAL, M9 glucose, 0.1 mM IPTG, no substrate added
Protocol: as §3, §4

T3 sequence (P50225 whole entry V223M): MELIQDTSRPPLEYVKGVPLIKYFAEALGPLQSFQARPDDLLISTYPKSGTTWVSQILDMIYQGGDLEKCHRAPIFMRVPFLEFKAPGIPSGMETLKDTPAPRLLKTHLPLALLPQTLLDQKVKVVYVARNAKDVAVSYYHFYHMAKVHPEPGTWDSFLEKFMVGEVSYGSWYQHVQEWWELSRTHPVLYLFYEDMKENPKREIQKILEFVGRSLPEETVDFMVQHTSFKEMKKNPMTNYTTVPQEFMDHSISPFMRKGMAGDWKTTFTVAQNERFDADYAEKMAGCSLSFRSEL
T4 sequence (P10248 whole entry): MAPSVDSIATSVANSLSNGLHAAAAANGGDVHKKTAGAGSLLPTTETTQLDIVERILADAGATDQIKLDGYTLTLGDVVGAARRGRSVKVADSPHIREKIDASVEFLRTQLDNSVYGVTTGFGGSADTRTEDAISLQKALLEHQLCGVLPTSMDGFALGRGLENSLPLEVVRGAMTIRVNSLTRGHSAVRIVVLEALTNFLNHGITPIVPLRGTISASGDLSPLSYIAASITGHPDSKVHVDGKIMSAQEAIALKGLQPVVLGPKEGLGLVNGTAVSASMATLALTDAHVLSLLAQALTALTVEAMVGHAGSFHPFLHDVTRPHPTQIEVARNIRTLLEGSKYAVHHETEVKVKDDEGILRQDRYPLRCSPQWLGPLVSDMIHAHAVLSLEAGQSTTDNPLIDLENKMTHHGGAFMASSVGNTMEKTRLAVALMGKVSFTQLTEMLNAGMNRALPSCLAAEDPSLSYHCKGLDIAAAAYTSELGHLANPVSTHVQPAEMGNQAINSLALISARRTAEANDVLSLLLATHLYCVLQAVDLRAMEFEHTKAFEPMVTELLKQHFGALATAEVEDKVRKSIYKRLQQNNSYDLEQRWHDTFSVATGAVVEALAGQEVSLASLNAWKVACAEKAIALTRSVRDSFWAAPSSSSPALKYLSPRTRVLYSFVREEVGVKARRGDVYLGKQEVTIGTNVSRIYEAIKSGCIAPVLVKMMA
T2 sequence (P17988 whole entry): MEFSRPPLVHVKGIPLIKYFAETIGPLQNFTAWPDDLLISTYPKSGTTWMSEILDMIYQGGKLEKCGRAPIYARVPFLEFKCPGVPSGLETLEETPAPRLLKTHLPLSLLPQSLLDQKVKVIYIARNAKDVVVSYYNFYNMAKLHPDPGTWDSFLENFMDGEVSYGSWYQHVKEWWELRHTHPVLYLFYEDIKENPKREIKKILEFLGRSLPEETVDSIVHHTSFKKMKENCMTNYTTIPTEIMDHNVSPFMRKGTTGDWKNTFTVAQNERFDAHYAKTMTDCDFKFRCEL
T1 sequence (Q29476 whole entry): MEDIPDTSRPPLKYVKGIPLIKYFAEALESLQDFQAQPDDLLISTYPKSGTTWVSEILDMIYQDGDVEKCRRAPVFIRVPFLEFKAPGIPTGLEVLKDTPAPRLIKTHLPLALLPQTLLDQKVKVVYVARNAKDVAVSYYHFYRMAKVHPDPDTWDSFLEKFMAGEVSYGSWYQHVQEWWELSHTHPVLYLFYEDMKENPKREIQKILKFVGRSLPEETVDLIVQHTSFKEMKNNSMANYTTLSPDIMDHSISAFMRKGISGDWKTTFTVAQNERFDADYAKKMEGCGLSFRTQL

Structure (SMILES) | Zosteric acid formed [1] | Zosteric acid formed [2] | Zosteric acid formed (SULT1A1 human [3]) | Zosteric acid formed (RmXAL) | Zosteric acid formed (SULT1A1 human [4]) | pHCA remaining [1] | pHCA remaining [2] | pHCA remaining (SULT1A1 human [3]) | pHCA (RmXAL) | pHCA (SULT1A1 human [4])
O=C(O)/C=C/c1ccc(OS(=O)(=O)O)cc1 [Zosteric acid, zosteric acid] | 0.01 mM | 0.10 mM | 0.02 mM | Not detectable | 0.01 mM | – | – | – | – | –
O=C(O)/C=C/c1ccc(O)cc1 [pHCA, p-coumaric acid] | – | – | – | – | – | 0.10 mM | 0.02 mM | 0.08 mM | 0.04 mM | 0.02 mM
